In brackets after ≈: the same amount, converted by molar mass. Activity calls are given as the source filed them. The rule behind the calls is not given here.
Tests used:
Vero = assay: Cytotoxicity against african green monkey Vero cells by EPTT method; type: cell-based; conditions: chlorocebus sabaeus
Human alphaherpesvirus 2 = assay: Antiviral activity against HSV2 infected in human HeP2 ells; type: functional
[1] = Cytotoxicity against CHO cells after 48 hrs by MTT assay; type: cell-based, Cricetulus griseus; conditions: chinese hamster
HeLa [2] = assay: Cytotoxicity against human HeLa cells after 48 hrs; type: functional
[3] = Cytotoxicity against bovine Bon-Fib cells after 48 hrs; type: cell-based, Bos taurus; conditions: cattle
HEp-2 [4] = assay: Cytotoxicity against human Hep2 cells after 48 hrs by MTT assay; type: functional; conditions: HEp-2, 48 h
CHO = assay: Cytotoxicity against CHO cells after 48 hrs; type: cell-based, Cricetulus griseus; conditions: chinese hamster
HeLa [5] = assay: Cytotoxicity against human HeLa cells after 48 hrs by MTT assay; type: functional
[6] = Cytotoxicity against bovine Bon-Fib cells after 48 hrs by MTT assay; type: cell-based, Bos taurus; conditions: cattle
P388 = assay: Antitumor activity against mouse P388 cells; type: functional, cell-based
Human alphaherpesvirus 1 = assay: Antiviral activity against HSV1 infected in mouse P388 cells; type: functional, organism-based; conditions: Human alphaherpesvirus 1, P388
HEp-2 [7] = assay: Cytotoxicity against human Hep2 cells after 48 hrs; type: functional
KB = assay: Cytotoxicity against human KB cells; type: functional, cell-based
L1210 = assay: Cytotoxicity against mouse L1210 cells; type: functional, cell-based
[8] = Cytotoxicity against pig PS cells; type: cell-based, Sus scrofa; conditions: read-out: ED50 (the source's name)

Row | Compound | CC100 (Vero) [µg/mL] | Activity (Human alphaherpesvirus 2) | CC50 at 48 h [1] [µg/mL] | CC100 [3] [µg/mL] | CC50 (HEp-2 [4]) [µg/mL] | CC100 (CHO) [µg/mL] | CC50 (HeLa [5]) [µg/mL] | CC50 at 48 h [6] [µg/mL] | further results
1 | CC(=O)O[C@@H]1OC2OC(=O)[C@@H]3CC[C@@H]4[C@@]5(C)CCCC(C)(C)[C@@H]5CC[C@]14[C@H]23 (stereo partly drawn) | > 120 | 120 µg/mL |  |  |  |  |  |  | 
2 | CC1(C)CCC[C@]2(C)[C@H]3CC[C@@]4(O)C(=O)OC[C@H]4[C@]3(C)CC[C@@H]12 | 50 | 25 µg/mL |  |  |  |  |  |  | 
3 | CC1(C)CCC[C@]2(C)[C@H]3CC[C@H]4C(=O)OC5OC[C@H]4[C@@]53CC[C@@H]12 | 58 | 29 µg/mL |  |  |  |  |  |  | 
4 | CC1(C)CCC[C@]2(C)[C@H]3CCc4cocc4[C@]3(C)CC[C@@H]12 | 120 | 60 µg/mL |  |  |  |  |  |  | 
5 | CC1(C)CCC[C@]2(C)[C@H]3CC[C@]4(O)C(=O)OC[C@H]4[C@]3(C)CC[C@@H]12 | 56 | 28 µg/mL |  |  |  |  |  |  | 
6 | COC(=O)[C@@H]1CC[C@@H]2[C@@]3(C)CCCC(C)(C)[C@@H]3CC[C@]23C(O)OC[C@H]13 (stereo partly drawn) | 30 | inactive | 24.5 (≈ 69.9 µM) | > 120 | 21.8 (≈ 62.3 µM) | 30 | 37.6 (≈ 107 µM) | > 120 | CC100 (HeLa [2]): 60 µg/mL
7 | C[C@]12C[C@@H](O)C(=O)[C@](C)(CO)[C@@H]1CC[C@@]1(C)c3cocc3CC[C@H]21 [ISOSPONGIADIOL] |  |  |  |  |  |  |  |  | IC50 (P388): 5 µg/mL (≈ 15 µM); IC50 (Human alphaherpesvirus 1): 2 µg/mL (≈ 6.02 µM)
8 | CC(=O)OC[C@@H]1[C@H]2CC[C@@H]3[C@@]4(C)CCCC(C)(C)[C@@H]4CC[C@@]13COC2=O | 28 | 14 µg/mL | 21.5 (≈ 59.4 µM) | 36 | 10.1 (≈ 27.7 µM) | 36 | 16.5 (≈ 45.5 µM) | 15.9 (≈ 43.8 µM) | CC100 (HeLa [2]): 18 µg/mL
9 | CC(=O)O[C@H]1OC(=O)[C@@H]2CC[C@@H]3[C@@]4(C)CCCC(C)(C)[C@@H]4CC[C@@]3(C=O)[C@H]12 | 9 | 4.5 µg/mL | 4.96 (≈ 13.2 µM) | 24 | 4.43 (≈ 11.8 µM) | 24 | 6.27 (≈ 16.7 µM) | 18.3 (≈ 48.6 µM) | CC100 (HeLa [2]): 12 µg/mL; CC100 (HEp-2 [7]): 12 µg/mL
10 | CO[C@H]1CC[C@]2(C)[C@H]3CCc4cocc4[C@]3(C)CC[C@H]2[C@@H]1C | 28 | 15 µg/mL | 13.3 (≈ 44 µM) | 36 | 10.4 (≈ 34.5 µM) | 36 | 13.6 (≈ 44.9 µM) | 17.9 (≈ 59.2 µM) | CC100 (HeLa [2]): 18 µg/mL
11 | C[C@]12CC(=O)[C@@H](O)[C@](C)(CO)[C@@H]1CC[C@@]1(C)c3cocc3CC[C@H]21 [SPONGIADIOL] |  |  |  |  |  |  |  |  | IC50 (P388): 0.5 µg/mL (≈ 1.5 µM); IC50 (Human alphaherpesvirus 1): 0.25 µg/mL (≈ 0.752 µM)
12 | CC(=O)O[C@H]1C=C2C(=O)OC[C@@]2(O)[C@]2(C)[C@@H](OC(C)=O)C[C@H]3C(C)(C)CCC[C@]3(C)[C@@H]12 [DORISENONE A] |  |  |  |  |  |  |  |  | IC50 (KB): 0.22 µg/mL (≈ 0.506 µM); IC50 (L1210): 0.21 µg/mL (≈ 0.483 µM)
13 | CC1(C)C(=O)CC[C@]2(C)[C@H]3CCc4cocc4[C@]3(C)CC[C@@H]12 | 28 | inactive |  | 40 |  | 30 |  |  | 
14 | C[C@]12CC(=O)[C@H](O)[C@](C)(CO)[C@@H]1CC[C@@]1(C)c3cocc3CC[C@H]21 [EPISPONGIADIOL] |  |  |  |  |  |  |  |  | IC50 (P388): 8 µg/mL (≈ 24.1 µM); IC50 (Human alphaherpesvirus 1): 12.5 µg/mL (≈ 37.6 µM)
15 | Nc1nc2c(ncn2COCCO)c(=O)[nH]1 [ACYCLOVIR] | > 600 | 6 µg/mL |  |  |  |  |  |  | 
16 | CCCC(=O)O[C@@H]1C[C@H]2C(C)(C)CCC[C@]2(C)[C@H]2CC[C@H]3C(=O)O[C@H]4O[C@@H](O)[C@]21[C@H]43 |  |  |  |  |  |  |  |  | CC50 [8]: 6.5 µg/mL (≈ 15.5 µM)
17 | CC1(C)CCC[C@]2(C)[C@H]3CC[C@H]4C(=O)OC[C@]3(CC[C@@H]12)[C@@H]4CO | 37.5 | 18.7 µg/mL |  |  |  |  |  |  | 
18 | CO[C@@H]1OC2OC(=O)[C@@H]3CC[C@@H]4[C@@]5(C)CCCC(C)(C)[C@@H]5CC[C@]14[C@H]23 (stereo partly drawn) | 120 | 60 µg/mL |  |  |  |  |  |  | 
19 | CC1(C)CCC[C@]2(C)[C@H]3CC=C4C(=O)OC[C@H]4[C@]3(C)CC[C@@H]12 [ISOAGATHOLACTONE] | 40 | inactive |  |  |  |  |  |  | 
20 | CC1(C)CCC[C@]2(C)[C@H]3CC[C@H]4C(=O)OC[C@H]4[C@]3(C=O)CC[C@@H]12 | 28 | 14 µg/mL | 13.2 (≈ 41.3 µM) | 40 | 9.56 (≈ 30 µM) | 20 | 14.2 (≈ 44.5 µM) | 19 (≈ 59.6 µM) | 
21 | CC1(C)CCC[C@]2(C)[C@H]3CC[C@H]4C(=O)OC5O[C@@H](O)[C@]3(CC[C@@H]12)[C@H]54 (stereo partly drawn) [DENDRILLOL- 1] | 8 | inactive | 5.1 (≈ 15.2 µM) | 13 | 3.46 (≈ 10.3 µM) | 13 | 14.8 (≈ 44.3 µM) | 18.9 (≈ 56.4 µM) | 
22 | CC[C@]1(O)C[C@H]2CN(CCc3c([nH]c4ccccc34)[C@@](C(=O)OC)(c3cc4c(cc3OC)N(C=O)[C@H]3[C@@](O)(C(=O)OC)[C@H](OC(C)=O)[C@]5(CC)C=CCN6CC[C@]43[C@@H]65)C2)C1 [VINCRISTINE] |  |  | 1.15 (≈ 1.39 µM) |  | 0.05 (≈ 0.0606 µM) |  | 0.05 (≈ 0.0606 µM) | 0.61 (≈ 0.739 µM) | 

Reference: ChEMBL document CHEMBL1159320, “Cytotoxic effect (on tumor cells) and in vitro antiviral activity against herpes simplex virus of synthetic spongiane diterpenes” (J Nat Prod, 2002)
